Patent publication US12303572B2 (Duke University, priority 2015, dated 2025)

How the values were obtained:
[1] = In vitro (phantom) quantitative T2 mapping at 7T, spin-spin relaxation contrast
Description: Data are provided from quantitative T2 mapping at 7T using a RARE FSE protocol with at least 6 different echo times, at solute concentrations of 10 and 20 mM.

[2] = Ascorbate T2 enhancement in rodent model of neocortical spreading depression; type: in vivo; details: slices 3 and 4 mm anterior to bregma, KCl-induced SD in right hemisphere
Text: FIG. 10. […] The craniectomy site is 1 mm posterior to bregma, a skull landmark representing the posterior third of the underlying brain. The above two rows show T2 images and quantitative color lute T2 maps of signal change in rodent brain that are 3 and 4 mm anterior to bregma, that is, distant from the SD induction site. […] These marked cortical signal changes are consistent with the known hypermetabolic activity that occurs with SD, as also observed with ^18F-FDG PET, and with direct microdialysis and metabolomic determinations.
Spreading depression (SD) is an experimentally reproducible pathophysiological phenomenon of CNS tissues originally described 60 years ago by Loao. After a focal region of cortex reaches a critical threshold of ionic perturbation, a massive spreading wave of cellular depolarization may begin and spread through gray matter tissue, but remain confined to the gray matter zone in which it was induced, not crossing white matter pathways. […]
The craniectomy site is 1 mm posterior to bregma, a skull landmark representing the posterior third of the underlying brain. The above two rows show T2 images and quantitiative color lute T2 maps of signal change in rodent brain that are 3 and 4 mm anterior to bregma, that is, distant from the SD induction site. […]

[3] = Perfusion and viability cardiac imaging with parenteral ascorbate at 7T; type: in vivo; details: initial i.v. bolus, rat heart
Description: FIGS. 11A-11B. Perfusion and viability cardiac imaging with parenteral ascorbate. FIG. 11A depicts the two primary imaging planes, coronal and axial, for rat heart imaging at 7T.
Perfusion and viability cardiac imaging with parenteral ascorbate was assessed. FIG. 11A, depicts the two primary imaging planes, coronal and axial, for rat heart imaging at 7T. Retrospective gating with respiratory coupling was employed to collect images at 7T. The acquisition sequence is moderately T2-weighted and can be further optimized to enhance the contrast effect.

[4] = T2 contrast changes in guinea pig brain at 7T after i.v. ascorbate formulations; type: in vivo, guinea pigs; details: 2 g/kg over 60 min slow infusion
[5] = oral, even at doses more than 100 times the recommended daily allowance; cited from earlier work
[6] = physiological pH of 7.4; cited from earlier work

Compound	change in T2 relaxation ([1]; 10 mM ascorbate with physiological glucose (5 mM) or HCO3- (25 mM), pH 7.0) [%]	pH at which the T2 effect is maximized ([1]; phantoms, FIG. 3C)	lowest concentration with statistically significant negative T2 contrast (signal loss) ([1]; vs control (phosphate-buffered saline), conventional FSE acquisition) [mM]	effect of H2O2 on ascorbate T2 enhancement ([1]; μM H2O2, phantoms, FIG. 3B)	T2 signal change in cerebral cortex [2]	T2 signal intensity in left ventricle [3]	FSE T2 images before and after infusion [4]	plasma concentration [5] [µM]	fraction present as mono anion [6] [%]	T2 contrast effect (T2 relaxation in ms) relative to meglumine or ascorbate alone ([1]; 10 mM, water, neutral pH, FIG. 3D)
O=C1O[C@H]([C@@H](O)CO)C(O)=C1O [ascorbate, L-ascorbic acid]	50	7.0-7.4	1 to 5	marked synergism	clear T2 asymmetry in the right cerebral cortex as compared to the left	transient decrease in T2 signal intensity throughout the left ventricle	dramatic signal intensity differences throughout the brain parenchyma	≤ 200	99	–
meglumine ascorbate	–	–	–	–	–	–	–	–	–	approximately 4 times
